Assays:
Test in all cases: KINOMEscan
Assay type in all cases: binding
PKACα = target: T1, PKACα (Homo sapiens, UniProt P17612)
T1 construct: purchased Eurofins DiscoverX, LLC; host or cells: E. coli BL21-derived host (T7 phage) or HEK-293

ERK1 = target: T2, ERK1 (Homo sapiens, UniProt P27361)
T2 construct: purchased Eurofins DiscoverX, LLC; host or cells: E. coli (T7 phage) or HEK-293

PAK1 = target: T3, PAK1 (Homo sapiens, UniProt Q13153)
T3 construct: purchased Eurofins DiscoverX, LLC; host or cells: E. coli (BL21-derived, T7 phage) or HEK-293
T3 sequence (Q13153 whole entry): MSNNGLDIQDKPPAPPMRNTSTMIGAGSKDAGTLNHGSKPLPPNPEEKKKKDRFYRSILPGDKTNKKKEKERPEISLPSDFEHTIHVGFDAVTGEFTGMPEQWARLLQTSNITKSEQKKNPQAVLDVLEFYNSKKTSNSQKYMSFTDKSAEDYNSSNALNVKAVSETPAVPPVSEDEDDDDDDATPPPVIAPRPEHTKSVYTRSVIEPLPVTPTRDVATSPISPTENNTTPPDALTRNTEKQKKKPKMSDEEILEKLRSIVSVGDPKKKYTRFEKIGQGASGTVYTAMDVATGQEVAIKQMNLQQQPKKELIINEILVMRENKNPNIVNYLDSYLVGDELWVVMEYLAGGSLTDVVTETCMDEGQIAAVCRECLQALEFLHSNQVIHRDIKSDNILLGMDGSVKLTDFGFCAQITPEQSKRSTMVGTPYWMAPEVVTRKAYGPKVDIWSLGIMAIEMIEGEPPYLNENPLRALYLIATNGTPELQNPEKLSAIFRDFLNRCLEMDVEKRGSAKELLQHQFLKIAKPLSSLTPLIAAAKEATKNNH

IGF1R = target: T4, IGF1R (Homo sapiens, UniProt P08069)
T4 construct: purchased Eurofins DiscoverX, LLC; host or cells: E. coli (T7 phage) or HEK-293
T4 sequence (P08069 31-1367): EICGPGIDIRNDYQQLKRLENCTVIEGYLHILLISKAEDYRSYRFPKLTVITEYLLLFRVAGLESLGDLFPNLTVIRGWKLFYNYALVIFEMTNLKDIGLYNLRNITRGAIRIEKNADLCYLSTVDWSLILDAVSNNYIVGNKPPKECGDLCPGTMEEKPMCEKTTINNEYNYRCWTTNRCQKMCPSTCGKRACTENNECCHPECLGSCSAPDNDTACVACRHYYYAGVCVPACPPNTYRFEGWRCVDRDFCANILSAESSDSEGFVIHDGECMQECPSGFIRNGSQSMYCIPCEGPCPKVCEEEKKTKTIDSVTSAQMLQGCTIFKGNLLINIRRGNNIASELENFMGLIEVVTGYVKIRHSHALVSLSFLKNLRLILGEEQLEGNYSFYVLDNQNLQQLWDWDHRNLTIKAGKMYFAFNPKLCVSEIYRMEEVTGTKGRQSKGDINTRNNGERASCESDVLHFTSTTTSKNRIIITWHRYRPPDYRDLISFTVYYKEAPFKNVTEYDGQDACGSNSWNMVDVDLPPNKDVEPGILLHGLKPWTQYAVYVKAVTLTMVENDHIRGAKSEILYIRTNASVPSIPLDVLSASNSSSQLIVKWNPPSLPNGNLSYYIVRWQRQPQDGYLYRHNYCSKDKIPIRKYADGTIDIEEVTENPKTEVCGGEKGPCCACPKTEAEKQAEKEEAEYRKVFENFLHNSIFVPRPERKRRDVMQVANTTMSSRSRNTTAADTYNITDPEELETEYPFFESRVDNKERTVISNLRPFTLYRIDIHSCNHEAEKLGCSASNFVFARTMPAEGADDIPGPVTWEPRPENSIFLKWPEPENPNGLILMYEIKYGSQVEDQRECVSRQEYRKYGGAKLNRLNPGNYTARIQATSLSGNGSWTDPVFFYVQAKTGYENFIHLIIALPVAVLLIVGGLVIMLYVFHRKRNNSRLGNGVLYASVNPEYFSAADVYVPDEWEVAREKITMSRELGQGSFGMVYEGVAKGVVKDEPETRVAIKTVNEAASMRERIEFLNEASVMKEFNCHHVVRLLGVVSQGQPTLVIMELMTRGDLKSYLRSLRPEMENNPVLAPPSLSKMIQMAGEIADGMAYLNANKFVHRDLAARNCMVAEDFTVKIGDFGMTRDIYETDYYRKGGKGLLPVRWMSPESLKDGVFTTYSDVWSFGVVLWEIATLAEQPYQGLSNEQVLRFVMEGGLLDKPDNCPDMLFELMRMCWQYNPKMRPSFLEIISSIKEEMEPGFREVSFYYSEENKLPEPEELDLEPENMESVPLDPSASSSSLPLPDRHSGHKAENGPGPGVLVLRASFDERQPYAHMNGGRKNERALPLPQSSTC

CSNK1G2 = target: T5, CSNK1G2 (Homo sapiens, UniProt P78368)
T5 construct: purchased Eurofins DiscoverX, LLC; host or cells: E. coli (T7 phage) or HEK-293
T5 sequence (P78368 whole entry): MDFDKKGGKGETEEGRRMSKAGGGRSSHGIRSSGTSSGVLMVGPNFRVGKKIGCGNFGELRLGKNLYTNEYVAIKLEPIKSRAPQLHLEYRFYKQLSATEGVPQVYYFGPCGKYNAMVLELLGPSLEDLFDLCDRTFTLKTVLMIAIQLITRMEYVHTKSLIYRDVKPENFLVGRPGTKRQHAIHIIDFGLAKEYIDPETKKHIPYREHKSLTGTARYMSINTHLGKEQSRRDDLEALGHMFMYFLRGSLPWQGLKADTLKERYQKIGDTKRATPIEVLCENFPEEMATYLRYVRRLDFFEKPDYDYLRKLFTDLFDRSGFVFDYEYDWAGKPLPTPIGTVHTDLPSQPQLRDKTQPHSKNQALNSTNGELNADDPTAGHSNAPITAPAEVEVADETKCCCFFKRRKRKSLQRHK

AURKB = target: T6, AURKB (Homo sapiens, UniProt Q96GD4)
T6 construct: purchased Eurofins DiscoverX, LLC; host or cells: E. coli BL21-derived (T7 phage) or HEK-293
T6 sequence (Q96GD4 whole entry): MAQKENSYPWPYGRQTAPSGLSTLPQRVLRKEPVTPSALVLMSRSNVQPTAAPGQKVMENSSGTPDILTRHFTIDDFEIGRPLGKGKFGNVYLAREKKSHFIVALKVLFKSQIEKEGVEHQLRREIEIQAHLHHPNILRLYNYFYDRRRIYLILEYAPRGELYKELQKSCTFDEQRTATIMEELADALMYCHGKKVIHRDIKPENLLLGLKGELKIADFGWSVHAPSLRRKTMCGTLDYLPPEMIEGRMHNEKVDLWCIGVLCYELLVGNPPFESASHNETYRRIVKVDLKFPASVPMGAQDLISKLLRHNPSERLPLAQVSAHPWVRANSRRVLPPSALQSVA

TRKA = target: T7, TRKA (Homo sapiens, UniProt P04629)
T7 construct: purchased Eurofins DiscoverX, LLC; host or cells: E. coli BL21-derived host (T7 phage) or HEK-293
T7 sequence (P04629 33-796): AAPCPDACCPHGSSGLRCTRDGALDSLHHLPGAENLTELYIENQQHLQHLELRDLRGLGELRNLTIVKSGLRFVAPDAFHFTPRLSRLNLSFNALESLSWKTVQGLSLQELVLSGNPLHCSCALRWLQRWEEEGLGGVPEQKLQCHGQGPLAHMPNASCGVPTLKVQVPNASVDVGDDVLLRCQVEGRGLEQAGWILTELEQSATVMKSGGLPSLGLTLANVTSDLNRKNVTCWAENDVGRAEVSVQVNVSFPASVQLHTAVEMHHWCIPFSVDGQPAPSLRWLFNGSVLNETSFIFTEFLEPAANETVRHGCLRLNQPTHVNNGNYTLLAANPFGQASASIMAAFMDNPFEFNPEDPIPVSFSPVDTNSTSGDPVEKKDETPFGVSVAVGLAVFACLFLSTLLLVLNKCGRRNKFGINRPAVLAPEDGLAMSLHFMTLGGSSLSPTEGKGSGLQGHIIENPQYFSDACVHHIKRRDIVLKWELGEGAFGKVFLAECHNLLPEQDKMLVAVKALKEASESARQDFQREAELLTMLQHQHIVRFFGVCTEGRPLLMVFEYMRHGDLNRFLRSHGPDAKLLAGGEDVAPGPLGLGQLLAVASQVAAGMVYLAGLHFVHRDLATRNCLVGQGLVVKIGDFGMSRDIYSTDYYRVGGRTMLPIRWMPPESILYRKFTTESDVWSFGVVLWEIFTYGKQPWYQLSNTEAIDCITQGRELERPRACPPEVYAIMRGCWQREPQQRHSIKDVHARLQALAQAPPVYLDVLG

AXL = target: T8, AXL (Homo sapiens, UniProt P30530)
T8 construct: purchased Eurofins DiscoverX, LLC; host or cells: E. coli BL21-derived (T7 phage) or HEK-293
T8 sequence (P30530 26-894): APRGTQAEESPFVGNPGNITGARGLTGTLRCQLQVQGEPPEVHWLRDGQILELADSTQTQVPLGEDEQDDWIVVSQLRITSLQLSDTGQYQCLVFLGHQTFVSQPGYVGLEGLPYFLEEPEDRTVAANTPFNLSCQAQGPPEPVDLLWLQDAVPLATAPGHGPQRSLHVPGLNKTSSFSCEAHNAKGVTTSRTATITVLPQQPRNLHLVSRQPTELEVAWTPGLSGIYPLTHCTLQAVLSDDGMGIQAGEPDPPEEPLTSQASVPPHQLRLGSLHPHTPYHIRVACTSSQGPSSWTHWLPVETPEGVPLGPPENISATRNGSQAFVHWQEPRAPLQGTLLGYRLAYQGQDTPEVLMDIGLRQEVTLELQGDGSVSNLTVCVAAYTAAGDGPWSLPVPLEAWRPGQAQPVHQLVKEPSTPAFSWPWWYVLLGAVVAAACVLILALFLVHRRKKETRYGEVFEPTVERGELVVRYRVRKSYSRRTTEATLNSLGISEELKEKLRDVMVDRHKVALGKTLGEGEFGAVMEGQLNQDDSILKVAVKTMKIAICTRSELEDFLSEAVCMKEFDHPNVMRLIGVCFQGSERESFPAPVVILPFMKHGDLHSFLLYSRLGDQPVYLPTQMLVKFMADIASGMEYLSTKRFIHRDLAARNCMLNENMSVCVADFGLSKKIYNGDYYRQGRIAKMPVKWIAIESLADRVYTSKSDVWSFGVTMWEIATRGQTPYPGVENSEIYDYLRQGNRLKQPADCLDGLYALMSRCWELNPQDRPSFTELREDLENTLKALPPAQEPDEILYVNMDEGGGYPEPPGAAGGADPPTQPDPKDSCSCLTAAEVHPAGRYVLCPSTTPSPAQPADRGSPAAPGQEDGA

SRC = target: T9, SRC (Homo sapiens, UniProt P12931)
T9 construct: purchased Eurofins DiscoverX, LLC; host or cells: E. coli BL21-derived host (T7 phage) or HEK-293
T9 sequence (P12931 whole entry): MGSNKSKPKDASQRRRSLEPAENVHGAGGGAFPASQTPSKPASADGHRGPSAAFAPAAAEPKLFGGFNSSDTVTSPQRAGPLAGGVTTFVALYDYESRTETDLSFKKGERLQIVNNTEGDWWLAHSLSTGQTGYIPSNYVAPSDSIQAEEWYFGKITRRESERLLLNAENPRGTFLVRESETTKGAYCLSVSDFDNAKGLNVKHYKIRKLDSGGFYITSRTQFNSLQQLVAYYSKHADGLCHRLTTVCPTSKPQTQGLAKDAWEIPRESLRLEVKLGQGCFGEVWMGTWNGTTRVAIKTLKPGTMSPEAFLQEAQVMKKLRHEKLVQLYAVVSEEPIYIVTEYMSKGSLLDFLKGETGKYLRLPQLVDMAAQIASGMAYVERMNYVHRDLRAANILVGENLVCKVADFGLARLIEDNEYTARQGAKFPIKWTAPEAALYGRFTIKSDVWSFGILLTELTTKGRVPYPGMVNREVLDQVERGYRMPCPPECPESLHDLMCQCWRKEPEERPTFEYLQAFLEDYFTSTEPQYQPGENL

IKKα = target: T10, IKKα (Homo sapiens, UniProt O15111)
T10 construct: purchased Eurofins DiscoverX, LLC; host or cells: E. coli (T7 phage) or HEK-293
T10 sequence (O15111 1-745): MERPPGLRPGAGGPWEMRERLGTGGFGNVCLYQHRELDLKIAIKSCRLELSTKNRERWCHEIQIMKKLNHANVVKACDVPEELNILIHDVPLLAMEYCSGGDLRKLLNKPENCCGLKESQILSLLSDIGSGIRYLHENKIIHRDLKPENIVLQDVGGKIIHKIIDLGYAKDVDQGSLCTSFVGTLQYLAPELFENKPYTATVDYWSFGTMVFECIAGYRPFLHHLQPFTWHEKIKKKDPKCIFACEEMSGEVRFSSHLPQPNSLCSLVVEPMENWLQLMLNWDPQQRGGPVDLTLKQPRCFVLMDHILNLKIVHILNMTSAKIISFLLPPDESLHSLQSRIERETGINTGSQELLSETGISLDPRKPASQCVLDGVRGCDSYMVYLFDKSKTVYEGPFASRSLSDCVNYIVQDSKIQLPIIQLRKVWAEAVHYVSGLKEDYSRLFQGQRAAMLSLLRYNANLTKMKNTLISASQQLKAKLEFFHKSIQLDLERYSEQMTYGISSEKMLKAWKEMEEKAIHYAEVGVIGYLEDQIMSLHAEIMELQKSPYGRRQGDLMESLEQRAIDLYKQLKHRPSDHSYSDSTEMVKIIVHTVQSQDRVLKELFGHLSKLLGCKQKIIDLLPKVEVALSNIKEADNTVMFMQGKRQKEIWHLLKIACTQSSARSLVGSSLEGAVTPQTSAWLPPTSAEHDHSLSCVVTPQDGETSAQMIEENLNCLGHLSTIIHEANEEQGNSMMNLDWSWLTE

T2 sequence (P27361 whole entry): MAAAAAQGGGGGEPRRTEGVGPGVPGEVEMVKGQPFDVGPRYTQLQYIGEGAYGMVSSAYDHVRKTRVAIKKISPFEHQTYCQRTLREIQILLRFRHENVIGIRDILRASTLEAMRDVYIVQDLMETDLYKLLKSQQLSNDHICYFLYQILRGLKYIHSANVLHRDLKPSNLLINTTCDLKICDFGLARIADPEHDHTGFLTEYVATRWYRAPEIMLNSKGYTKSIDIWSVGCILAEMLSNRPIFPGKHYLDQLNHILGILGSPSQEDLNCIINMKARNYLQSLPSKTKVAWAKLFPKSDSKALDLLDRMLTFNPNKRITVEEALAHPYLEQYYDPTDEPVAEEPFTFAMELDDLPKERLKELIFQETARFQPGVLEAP

Compound | RA @ 1000nM (PKACα) [%] | RA @ 10000nM (PKACα) [%] | RA @ 1000nM (ERK1) [%] | RA @ 10000nM (ERK1) [%] | RA @ 1000nM (PAK1) [%] | RA @ 10000nM (PAK1) [%] | RA @ 1000nM (IGF1R) [%] | RA @ 10000nM (IGF1R) [%] | RA @ 1000nM (CSNK1G2) [%] | RA @ 10000nM (CSNK1G2) [%] | RA @ 1000nM (AURKB) [%] | RA @ 10000nM (AURKB) [%] | RA @ 1000nM (TRKA) [%] | RA @ 10000nM (TRKA) [%] | RA @ 1000nM (AXL) [%] | RA @ 10000nM (AXL) [%] | RA @ 1000nM (SRC) [%] | RA @ 10000nM (SRC) [%] | RA @ 1000nM (IKKα) [%] | RA @ 10000nM (IKKα) [%]
CN(C)CCNC(=O)c1cc2c(cnn2CC2CCCCC2)cc1Cc1ccc(F)cc1F [Compound 95, 1-(Cyclohexylmethyl)-5-(2,4-difluorobenzyl)-N-(2-(dimethylamino)ethyl)-1H-indazole-6-carboxamide] | 100 | 94 | 96 | 90 | 100 | 93 | 100 | 93 | 100 | 98 | 99 | 71 | 100 | 92 | 84 | 83 | 100 | 93 | 92 | 75
CC(C)Cn1ncc2cc(Cc3ccc(F)cc3F)c(C(=O)NCCN(C)C)cc21 [Compound 94, 5-(2,4-Difluorobenzyl)-N-(2-(dimethylamino)ethyl)-1-isobutyl-1H-indazole-6-carboxamide] | 100 | 96 | 87 | 87 | 96 | 94 | 94 | 84 | 96 | 93 | 84 | 68 | 98 | 94 | 97 | 89 | 100 | 94 | 82 | 87

— paper PMC12406203 (Journal of Medicinal Chemistry, 2025)
